Experimental findings from patent US20250212884A1, “Magnesia Compounds For Preventing Contamination Of Animal Farming Facilities And For Decontamination Of Same” (priority 2022, published 2025) are described below.

For the assay, the system named is Salmonella. The assay can be described thus: Salmonella detection (drag swabs, ISO 6579-1:2017) in poultry (turkey) buildings one week after spraying of disinfectant. Also on record: species or system Salmonella spp. Conditions: Experiment 3; one week after application; 500 liter per 1000 m^2.

On to `Cc1ccc(S(=O)(=O)NCl)cc1.[Na]` [Chlorigal T, Sodium N-chloro-para-toluenesulfonamide], for which the “Salmonella test result, Sample #1” value is on record as “Negative” and the “Salmonella test result, Sample #2” value is “Negative”.
